This is an account of results in US20160176867A1, “MODIFIED BET-PROTEIN-INHIBITING DIHYDROQUINOXALINONES AND DIHYDROPYRIDOPYRAZINONES” (BAYER PHARMA AKTIENGESELLSCHAFT, priority 2013, published 2016).

Each structure is given as a SMILES string.

One assay relates to CHL-1 cells. Put plainly: Cell proliferation assay (alamarBlue), CHL-1. Type of assay: cell-based. The note with it: Homo sapiens; CHL-1 (melanoma, BRAF wild-type), 96 hours. In short, it runs like this:
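Human melanoma CHL-1 cells, 1000/well in DMEM with glutamine and 10% FCS, treated after overnight at 37°C with 1E-5 to 1E-8 M dilutions for 96 hours. alamarBlue fluorescence (ex 530/em 590 nm); baseline subtracted, compared with buffer-treated cells to give IC50.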

The subject of another assay is MOLP-8 cells. Briefly: Cell proliferation assay (alamarBlue), MOLP-8. The class given is cell-based. The note with it: Homo sapiens; MOLP-8 (multiple myeloma), 120 hours. In short, it runs like this:
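MOLP-8 cells plated at 4000 cells/well in RPMI1640 with 20% FCS, read after overnight culture, then treated with dilutions from 1E-5 to 1E-8 M for 120 hours at 37° C. Viability by alamarBlue fluorescence (ex 530/em 590 nm); initial reads subtracted, compared with buffer-treated cells, and IC50 calculated for 50% proliferation inhibition.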
Background: Alamar Blue is a resazurin reagent that responds to reducing activity.

The next assay deals with B16F10 cells. Briefly: Cell proliferation assay (alamarBlue), B16F10. The note with it: Mus musculus, B16-F10; B16F10 (melanoma, BRAF wild-type), 96 hours. The class given is cell-based. The procedure, abridged:
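B16F10 cells in DMEM with 10% FCS were exposed to seven concentrations from 1E-5 to 1E-8 M for 96 hours at 37 °C. Viability was read with alamarBlue (ex 530/em 590 nm), and day-0 signal was subtracted. IC50 was derived relative to buffer-treated cells.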

Assay [1] has as its target T1, BRD4 bromo domain 1 [BRD4(1)] (Homo sapiens, UniProt O60885).
T1 construct: N-terminally His6-tagged BRD4(1) (amino acids 67-152); made in house; host or cells: E. coli
Put plainly: BRD4/acetylated peptide H4 binding assay (TR-FRET), BRD4 bromo domain 1. The note with it: inhibition of BRD4(1)/Ac-H4 peptide interaction. The procedure, abridged:
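TR-FRET (665/620 nm ratio) measuring displacement of biotinylated tetra-acetylated H4 peptide from His6-BRD4(1) (aa 67-152, E. coli; typically 10 nM) at pH 7.5. Compound (11 concentrations, 0.1 nM–20 μM, duplicates) was preincubated 10 min at 22°C, then 1 h at 22°C and ≥3 h at 4°C; IC50 from 4-parameter fit normalized to DMSO and no-BRD4 controls.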

A further assay relates to MOLM-13 cells. Briefly: Cell proliferation assay (alamarBlue), MOLM-13. Type of assay: cell-based. The settings on record: Homo sapiens; MOLM-13 (acute myeloid leukaemia), 96 hours. The procedure, abridged:
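Cells in RPMI1640 with 10% FCS, read by alamarBlue fluorescence (ex 530, em 590 nm) after overnight plating and again after 96 h compound exposure at 37° C (1E-5 to 1E-8 M). Baseline-subtracted signal compared with buffer-treated cells to derive IC50.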

Take `C[C@@H]1C(=O)N(C)c2ccc(Nc3cccc(S(N)(=O)=O)c3)nc2N1C1CCOCC1` [Example 58, 3-{[(3R)-1,3-dimethyl-2-oxo-4-(tetrahydro-2H-pyran-4-yl)-1,2,3,4-tetrahydropyrido[2,3-b]pyrazin-6-yl]amino}-benzenesulphonamide]: the IC50 in the assay with CHL-1 cells is 0.299 µM; in the assay with MOLP-8 cells, 0.268 µM; with B16F10 cells it was 0.613 µM; in assay [1], 0.139 µM; in the assay on MOLM-13 cells, 0.378 µM.
In the same order, the values of `C[C@@H]1C(=O)N(C)c2ccc(Nc3cccc(S(=O)(=O)NCCN(C)C)c3)nc2N1C1CCN(C(=O)OC(C)(C)C)CC1` [Example 59, tert-butyl 4-[(3R)-6-[(3-{[2-(dimethylamino)ethyl]-sulphamoyl}phenyl)amino]-1,3-dimethyl-2-oxo-2,3-dihydropyrido[2,3-b]pyrazin-4(1H)-yl]piperidine-1-carboxylate] are 0.204 µM, 0.297 µM, 1.14 µM, 0.156 µM and 0.516 µM.
Consider `C[C@@H]1C(=O)N(C)c2ccc(Nc3cccc(C(=O)N[C@H]4CC[C@H](N5CCN(CC6CC6)CC5)CC4)c3)nc2N1Cc1ccccc1` [Example 72, 3-{[(3R)-4-benzyl-1,3-dimethyl-2-oxo-1,2,3,4-tetrahydropyrido[2,3-b]pyrazin-6-yl]amino}-N-{trans-4-[4-(cyclo-propylmethyl)piperazin-1-yl]cyclohexyl}benzamide], for which the 50% inhibitory concentration (IC50) with CHL-1 cells was 0.106 µM; with MOLP-8 cells, 0.122 µM; in the assay on B16F10 cells it was 0.396 µM; in assay [1] it was 0.062 µM; in the assay on MOLM-13 cells, 0.25 µM.
`C[C@@H]1C(=O)N(C)c2ccc(Nc3cccc(C(=O)NC4CCN(C)CC4)c3)nc2N1Cc1ccccc1` [Example 73, 3-{[(3R)-4-benzyl-1,3-dimethyl-2-oxo-1,2,3,4-tetrahydropyrido[2,3-b]pyrazin-6-yl]amino}-N-(1-methylpiperidin-4-yl)benzamide]: the IC50 with CHL-1 cells is 0.08 µM; in the assay with MOLP-8 cells, 0.063 µM; in the assay with B16F10 cells it was 0.468 µM; in assay [1], 0.077 µM; in the assay on MOLM-13 cells, 0.11 µM.
In the same order, the values of `C[C@@H]1C(=O)N(C)c2ccc(Nc3cccc(C(=O)NCCN4CCN(C)CC4)c3)nc2N1Cc1ccccc1` [Example 74, 3-{[(3R)-4-benzyl-1,3-dimethyl-2-oxo-1,2,3,4-tetrahydropyrido[2,3-b]pyrazin-6-yl]amino}-N-[2-(4-methylpiperazin-1-yl)ethyl]benzamide] are 0.083 µM, 0.082 µM, 0.491 µM, 0.087 µM and 0.157 µM.
Turning to `C[C@@H]1C(=O)N(C)c2ccc(Nc3cccc(C(=O)N4CCN(C)CC4)c3)nc2N1Cc1ccccc1` [Example 75], the IC50 with CHL-1 cells came to 0.125 µM; in the assay with MOLP-8 cells, 0.133 µM; in the assay with B16F10 cells, 0.381 µM; in assay [1], 0.118 µM; with MOLM-13 cells it was 0.197 µM.
Consider `C[C@@H]1C(=O)N(C)c2ccc(Nc3cccc(C(=O)N[C@H]4CC[C@H](N5CCN(CC6CC6)CC5)CC4)c3)nc2N1c1ccc(F)cc1` [Example 93], for which the IC50 in the assay with CHL-1 cells was 0.539 µM; in the assay on MOLP-8 cells, 0.8 µM; with B16F10 cells, 1.18 µM; in assay [1] it was 0.466 µM; with MOLM-13 cells, 0.41 µM.
In the same order, the values of `C[C@@H]1C(=O)N(C)c2ccc(Nc3cccc(S(=O)(=O)N4CC5(CCC5)C4)c3)nc2N1C1CCNCC1` [Example 122, (3R)-6-{[3-(2-Azaspiro[3.3]hept-2-ylsulphonyl)phenyl]amino}-1,3-dimethyl-4-(piperidin-4-yl)-3,4-dihydropyrido[2,3-b]pyrazin-2(1H)-one] are 0.712 µM, 0.493 µM, 1.84 µM, 0.021 µM and 0.396 µM.
In the same order, the values of `C[C@@H]1C(=O)N(C)c2ccc(Nc3cccc(S(=O)(=O)N(C)C)c3)nc2N1C1CCNCC1` [Example 123, 3-{[(3R)-1,3-dimethyl-2-oxo-4-(piperidin-4-yl)-1,2,3,4-tetrahydropyrido[2,3-b]pyrazin-6-yl]amino}-N,N-dimethylbenzene-sulphonamide] are 0.218 µM, 0.169 µM, 2.5 µM, 0.018 µM and 0.14 µM.
With `C[C@@H]1C(=O)N(C)c2ccc(Nc3cccc(S(=O)(=O)NC4CCN(C)CC4)c3)nc2N1C1CCNCC1` [Example 124, 3-{[(3R)-1,3-dimethyl-2-oxo-4-(piperidin-4-yl)-1,2,3,4-tetrahydropyrido[2,3-b]pyrazin-6-yl]amino}-N-(1-methylpiperidin-4-yl)benzenesulphonamide], the IC50 was more than 20 µM with CHL-1 cells; more than 20 µM in the assay on MOLP-8 cells; more than 20 µM in the assay on B16F10 cells; 0.03 µM in assay [1]; more than 20 µM with MOLM-13 cells.
In the case of `C[C@@H]1C(=O)N(C)c2ccc(Nc3cccc(S(=O)(=O)N4CCN(C)CC4)c3)nc2N1C1CCNCC1` [Example 125, (3R)-1,3-dimethyl-6-({3-[(4-methylpiperazin-1-yl)sulphonyl]phenyl}amino)-4-(piperidin-4-yl)-3,4-dihydropyrido[2,3-b]pyrazin-2(1H)-one], the IC50 is 2.26 µM in the assay on CHL-1 cells; 0.719 µM with MOLP-8 cells; more than 10 µM in the assay on B16F10 cells; 0.037 µM in assay [1]; 0.383 µM with MOLM-13 cells.
In the same order, the values of `C[C@@H]1C(=O)N(C)c2ccc(Nc3cccc(S(=O)(=O)N4CCN(CC(F)(F)F)CC4)c3)nc2N1C1CCNCC1` [Example 126, (3R)-1,3-dimethyl-4-(piperidin-4-yl)-6-[(3-{[4-(2,2,2-trifluoroethyl)piperazin-1-yl]sulphonyl}phenyl)amino]-3,4-dihydropyrido[2,3-b]pyrazin-2(1H)-one] are 0.202 µM, 0.13 µM, 1.16 µM, 0.038 µM and 0.084 µM.
Turning to `C[C@@H]1C(=O)N(C)c2ccc(Nc3cccc(S(=O)(=O)N[C@H]4CC[C@H](N5CCN(CC6CC6)CC5)CC4)c3)nc2N1C1CCNCC1` [Example 127, N-{trans-4-[4-(cyclopropylmethyl)piperazin-1-yl]cyclohexyl}-3-{[(3R)-1,3-dimethyl-2-oxo-4-(piperidin-4-yl)-1,2,3,4-tetrahydropyrido[2,3-b]pyrazin-6-yl]amino}-benzenesulphonamide], the IC50 is more than 20 µM in the assay with CHL-1 cells; more than 10 µM with MOLP-8 cells; more than 20 µM with B16F10 cells; 0.047 µM in assay [1]; more than 10 µM with MOLM-13 cells.
Take `C[C@@H]1C(=O)N(C)c2ccc(Nc3cccc(S(=O)(=O)N(C)C)c3)cc2N1C1CCNCC1` [Example 129, 3-{[(3R)-1,3-dimethyl-2-oxo-4-(piperidin-4-yl)-1,2,3,4-tetrahydroquinoxalin-6-yl]amino}-N,N-dimethylbenzenesulphon-amide]: the IC50 worked out at 0.945 µM in the assay on CHL-1 cells; 0.567 µM in the assay on MOLP-8 cells; 2.16 µM in the assay with B16F10 cells; 0.045 µM in assay [1]; 0.536 µM in the assay on MOLM-13 cells.
On the same counts, the results for `C[C@@H]1C(=O)N(C)c2ccc(Nc3cccc(C(=O)N[C@H]4CC[C@H](N5CCN(CC6CC6)CC5)CC4)c3)nc2N1C1CCNCC1` [Example 131, N-{trans-4-[4-(cyclo-propylmethyl)piperazin-1-yl]cyclohexyl}-3-{[(3R)-1,3-dimethyl-2-oxo-4-(piperidin-4-yl)-1,2,3,4-tetrahydropyrido[2,3-b]pyrazin-6-yl]amino}benzamide] are more than 20 µM, more than 20 µM, more than 20 µM, 0.251 µM and more than 10 µM.
On to `C[C@@H]1C(=O)N(C)c2ccc(Nc3cccc(C(=O)N(C)C)c3)cc2N1C1CCNCC1` [Example 133, 3-{[(3R)-1,3-dimethyl-2-oxo-4-(piperidin-4-yl)-1,2,3,4-tetrahydroquinoxalin-6-yl]amino}-N,N-dimethylbenzamide], for which the IC50 in the assay with CHL-1 cells was more than 10 µM; in the assay on MOLP-8 cells, 2.01 µM; with B16F10 cells it was more than 20 µM; in assay [1] it was 0.124 µM; in the assay with MOLM-13 cells, more than 10 µM.

By IC50 is commonly meant the concentration that inhibits the measured activity by half. Low values mean inhibition by little substance, high ones a need for much substance.
